Results taken from patent publication US9290440B2, “Bicyclic compound” (TOA EIYO LTD., priority 2012, dated 2016).
Like-named read-outs stand apart in the source and are kept apart here.

How the values were obtained:
[1] = molecular target: T1, human sGC α subunit and β subunit (Homo sapiens, UniProt Q02153); assay: Maximum effect of sGC activating function (Ca2+ fluorescence in CHO-K1 cells expressing human sGC and mouse CNGA2); format: cell-based; settings: increase ratio of sGC activity vs control solution at 10 μmol/L test compound
T1 construct: expressed in transfected cells
T1 sequence (Q02153 1-619): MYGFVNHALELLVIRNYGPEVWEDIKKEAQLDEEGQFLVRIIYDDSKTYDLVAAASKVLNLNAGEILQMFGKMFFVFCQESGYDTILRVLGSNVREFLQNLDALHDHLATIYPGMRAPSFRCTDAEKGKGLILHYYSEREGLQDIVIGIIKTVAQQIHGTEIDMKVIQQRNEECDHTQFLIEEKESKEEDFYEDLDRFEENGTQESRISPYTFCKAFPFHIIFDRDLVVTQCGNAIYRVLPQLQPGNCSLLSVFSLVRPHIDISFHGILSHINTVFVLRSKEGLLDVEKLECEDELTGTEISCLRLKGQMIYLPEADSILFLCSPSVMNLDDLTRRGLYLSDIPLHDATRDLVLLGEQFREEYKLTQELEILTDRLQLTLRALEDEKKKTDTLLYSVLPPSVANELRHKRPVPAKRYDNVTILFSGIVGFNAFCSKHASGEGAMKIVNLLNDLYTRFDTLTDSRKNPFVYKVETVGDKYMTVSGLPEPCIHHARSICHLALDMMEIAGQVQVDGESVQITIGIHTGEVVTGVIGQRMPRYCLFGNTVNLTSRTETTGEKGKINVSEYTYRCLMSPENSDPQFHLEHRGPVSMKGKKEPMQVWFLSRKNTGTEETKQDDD
T1 sequence (Q02108 1-690 partner): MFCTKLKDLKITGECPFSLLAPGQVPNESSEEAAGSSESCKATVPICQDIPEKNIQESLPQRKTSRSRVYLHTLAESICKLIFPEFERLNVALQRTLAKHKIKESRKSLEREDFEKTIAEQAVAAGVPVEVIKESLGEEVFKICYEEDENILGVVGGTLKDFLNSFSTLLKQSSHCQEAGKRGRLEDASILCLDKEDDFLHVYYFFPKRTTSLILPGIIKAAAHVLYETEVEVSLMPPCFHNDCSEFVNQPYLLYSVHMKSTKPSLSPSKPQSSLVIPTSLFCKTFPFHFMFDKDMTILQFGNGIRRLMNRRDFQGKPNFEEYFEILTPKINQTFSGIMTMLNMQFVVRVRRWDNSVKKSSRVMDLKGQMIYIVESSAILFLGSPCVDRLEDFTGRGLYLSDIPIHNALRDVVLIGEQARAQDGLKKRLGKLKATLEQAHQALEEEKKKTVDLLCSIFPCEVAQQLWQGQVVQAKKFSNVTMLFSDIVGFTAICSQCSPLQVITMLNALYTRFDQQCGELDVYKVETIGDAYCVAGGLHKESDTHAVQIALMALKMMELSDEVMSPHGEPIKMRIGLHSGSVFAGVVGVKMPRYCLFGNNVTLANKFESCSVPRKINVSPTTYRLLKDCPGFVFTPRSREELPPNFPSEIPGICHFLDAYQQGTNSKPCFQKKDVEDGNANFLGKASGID
Procedure: (§1) For the assay, Chinese hamster ovary cells (CHO-K1 cells) in which human sGC α subunit and β subunit and mouse cyclic nucleotide gated channel (CNGA2) are stably expressed were used.
(§2) CHO-K1 cells in which human sGC and mouse CNGA2 are stably expressed were cultured at 37° C. in F-12 medium containing 10% (v/v) fetal bovine serum (FBS), penicillin (100 U/mL), streptomycin (100 μg/mL), G418 (250 μg/mL), and zeocin (250 μg/mL). The cells were suspended in the culture medium and seeded onto a 96-well plate, and then cultured at 37° C. for 24 hours. After washing with assay buffer 1 (140 mmol/L sodium chloride, 5 mmol/L potassium chloride, 0.5 mmol/L magnesium chloride, 0.01 mmol/L calcium chloride, 10 mmol/L glucose, 0.4 mmol/L magnesium sulfate, 10 mmol/L 4-(2-hydroxyethyl)piperazin-1-ylethane sulfonic acid, and 125 μmol/L sulfinpyrazone, pH 7.4), an indicator solution in which FURA2-AM as a fluorescent Ca^2+ indicator is dissolved at concentration of 5 μmol/L in assay buffer 1 was added followed by culture for 60 minutes at 37° C. The indicator solution was removed. After washing with assay buffer 1, the test compound solution was added and incubated for 10 minutes at room temperature. The plate was placed in a fluorometer (Flex Station II, Molecular Devices, LLC), and then the intracellular calcium concentration was measured as fluorescence intensity ratio which is obtained from each excitation wavelength (excitation wavelength of 340 nm and 380 nm and detection wavelength of 510 nm).
(§3) The test compound solution was prepared by dissolving each of the test compounds in DMSO to a concentration of 10 mmol/L, and then adding the assay buffer 2 (140 mmol/L sodium chloride, 5 mmol/L potassium chloride, 0.5 mmol/L magnesium chloride, 1 mmol/L calcium chloride, 10 mmol/L glucose, 0.4 mmol/L magnesium sulfate, 10 mmol/L 4-(2-hydroxyethyl)piperazin-1-ylethane sulfonic acid, 125 μmol/L sulfinpyrazone, 100 μmol/L isobutylmethylxanthine, 10 μmol/L 1H-[1,2,4]-oxadiazole[4,3-a]quinoxalin-1-one (hereinbelow, ODQ), pH 7.4) for dilution to have test concentration of 10 μmol/L. For the evaluation of a case in which ODQ is not contained, the same evaluation was performed except that ODQ is excluded from assay buffer 2. As a control solution, a DMSO solution was used instead of the test compound solution.
(§4) The activity of the test compound corresponds to the increase ratio (%) of the sGC activity at the time of adding the test compound solution with respect to the sGC activity at the time of adding the control solution, and it was calculated by dividing the fluorescence intensity ratio at the time of adding the test compound by the fluorescence intensity ratio of the control solution and subtracting the sGC activity (100%) at the time of adding the control solution.
In this assay, intracellular cGMP concentration increases as sGC is activated, and according to opening of CNGA2 following the increase of cGMP, intracellular Ca^2+ concentration increases. Thus, SGC activation can be measured by following the change in intracellular Ca^2+ concentration. […] Thus, in the absence of ODQ, the maximum sGC activating function including the heme-dependent activation can be evaluated while the heme-independent sGC activating function can be evaluated in the presence of ODQ.

[2] = molecular target: T1, human sGC α subunit and β subunit; assay: Heme-independent property of sGC activating function (EC50 ratio, CHO-K1 cells expressing human sGC and mouse CNGA2); format: cell-based; settings: EC50 in the absence of ODQ divided by EC50 in the presence of ODQ, sGC activation
Procedure: as §1, §2, §3, §4
For the representative compounds, activity was measured in the same manner as Test Example 1 at each test concentration of 0.0001, 0.001, 0.003, 0.01, 0.03, 0.1, 1, and 10 μmol/L.
The degree of heme-independent property of each test compound with regard to sGC activating function was obtained by dividing, for EC50 measured from the concentration-activation curve which has been established from the above, EC50 in the absence of ODQ by EC50 in the presence of ODQ. Specifically, the smaller the EC50 ratio is, the less the change in sGC activating function is, the change in the function being caused by the presence or absence of ODQ, and thus it is found to be more heme-independent.
EC50 value was obtained by measuring the activity of each compound to be tested at concentrations of 0.0001, 0.001, 0.003, 0.01, 0.03, 0.1, 1, and 10 μmol/L and performing the calculation using four-parameter logistics model using Assay Explorer (Accelrys).

[3] = tested on: abdominal aorta ring specimen; assay: Evaluation of blood vessel relaxing function (phenylephrine-contracted abdominal aorta ring); settings: relaxation of rat abdominal aorta contracted with 1 μmol/L phenylephrine; without vs with 10 μmol/L ODQ
Procedure: The representative compounds of the present invention were evaluated by blood vessel relaxing function according to the following Test Example. In the assay, bleeding from the upper part of a heart of a rat (male, SD) was performed under anesthesia with pentobarbital (30 mg/kg) and then abdominal aorta was extracted. The connecting tissue adhered around blood vessel was removed from the abdominal aorta in an ice-cooled Krebs-Henseleit solution (KH solution) (118 mmol/L sodium chloride, 4.7 mmol/L potassium chloride, 1.2 mmol/L magnesium sulfate, 1.2 mmol/L potassium dihydrogen phosphate, 25 mmol/L sodium hydrogen carbonate, 2.5 mmol/L calcium chloride, and 10 mmol/L glucose, pH 7.4). After that, a ring specimen with length of 2 mm was prepared and fixed in 5 mL organ bath filled with a KH solution. The KH solution was kept at 37° C. and aerated with a mixture gas of 95% O2 and 5% CO2. The specimen was stabilized for 1 hour with static tension of 1 g. The KH solution was exchanged twice during that time. The tension on the specimen was recorded on a multi-channel recorder via pickup and amplifier. After the stabilization of the specimen, contraction was caused by using 1 μmol/L phenylephrine (Phe), and cumulative administration of each compound (0.001, 0.01, 0.03, 0.1, 0.3, 1, 3, 10, 30, 100, 1000, 10000 nmol/L) was performed. For the evaluation of a case in which 1H-1,2,4-oxadiazole-(4,3a)-quinoxalin-1-one (ODQ) is contained, 10 μmol/L ODQ was added 10 minutes before the Phe addition, and the same evaluation as above was performed.
EC50 value was calculated using four-parameter logistics model using Assay Explorer (Accelrys). The test compound solution was dissolved in DMSO such that the concentration of each test compound is 1000 times the final concentration.

[4] = ODQ not contained, read-out: Emax (%) ODQ− (Heme-dependent)
[5] = with 10 μmol/L ODQ, read-out: Emax (%) ODQ+ (Heme-independent)

SMILES	Emax at 10 µM [1, 4]	Emax at 10 µM [1, 5]	EC50 Ratio (ODQ−/ODQ+) [2]	EC50 Ratio (ODQ−/ODQ+) [3]
O=C(O)CCCCN(CCc1ccccc1OCc1ccc(CCc2ccccc2)cc1)C1CCCc2nc(C(=O)O)ccc21 (stereo not drawn) [Example 6, 5-{N-(4-Carboxybutyl)-N-[2-[2-[4-(2-phenylethyl)benzyloxy]phenyl]ethyl]amino}-5,6,7,8-tetrahydroquinoline-2-carboxylic acid]	126%	99.9%	0.87	–
O=C(O)CCCCN(CCc1ccccc1OCc1ccc(CCc2ccccc2)cc1)C1COc2cc(C(=O)O)ccc21 (stereo not drawn) [Example 7, 3-{N-(4-Carboxybutyl)-N-[2-[2-[4-(2-phenylethyl)benzyloxy]phenyl]ethyl]amino}-2,3-dihydrobenzofuran-6-carboxylic acid]	110%	108%	2.34	–
O=C(O)CCCCN(CCc1ccccc1OCc1ccc(CCc2ccccc2)cc1)C1COCc2cc(C(=O)O)ccc21 (stereo not drawn) [Example 8, 4-{N-(4-Carboxybutyl)-N-[2-[2-[4-(2-phenylethyl)benzyloxy]phenyl]ethyl]amino}-isochromane-7-carboxylic acid]	130%	102%	1.80	–
O=C(O)CCCCN(CCc1ccccc1OCc1ccc(OCc2ccccc2)cc1)C1CCCc2cc(C(=O)O)ccc21 (stereo not drawn) [Example 14, 5-{N-[2-[2-(4-Benzyloxybenzyloxyl)phenyl]ethyl]-N-(4-carboxybutyl)amino}-5,6,7,8-tetrahydronaphthalene-2-carboxylic acid]	99.1%	101%	1.73	–

The next lines start with the values.

Emax at 10 µM [1, 4]	Emax at 10 µM [1, 5]	EC50 Ratio (ODQ−/ODQ+) [2]	EC50 Ratio (ODQ−/ODQ+) [3]	SMILES
126%	104%	1.15	–	O=C(O)CCCCN(CCc1ccccc1OCc1ccc(/C=C/C2CCCCC2)cc1)C1CCCc2cc(C(=O)O)ccc21 (stereo not drawn) [Example 23, 5-{N-(4-Carboxybutyl)-N-[2-[2-[4-((E)-2-cyclohexylethenyl)benzyloxy]phenyl]ethyl]amino}-5,6,7,8-tetrahydronaphthalene-2-carboxylic acid]
113%	96.6%	1.84	–	O=C(O)CCCCN(CCc1ccccc1OC[C@H]1CC[C@@H](CCc2ccccc2)CC1)C1CCCc2cc(C(=O)O)ccc21 (stereo partly drawn) [Example 27, 5-{N-(4-Carboxybutyl)-N-[2-[2-[cis-4-(2-phenylethyl)cyclohexylmethoxy]phenyl]ethyl]amino}-5,6,7,8-tetrahydronaphthalene-2-carboxylic acid]
86.7%	122%	–	4.3	O=C(O)CCCCN(CCc1ccccc1OCc1ccc(C2CC2)cc1)C1CCCc2cc(C(=O)O)ccc21 (stereo not drawn) [Example 42, 5-{N-(4-Carboxybutyl)-N-[2-[2-(4-cyclopropylbenzyloxy)phenyl]ethyl]amino}-5,6,7,8-tetrahydronaphthalene-2-carboxylic acid]
90.3%	107%	–	5.5	CC(C)c1ccc(COc2ccccc2CCN(CCCCC(=O)O)C2CCCc3cc(C(=O)O)ccc32)cc1 (stereo not drawn) [Example 43, 5-{N-(4-Carboxybutyl)-N-[2-[2-(4-isopropylbenzyloxy)phenyl]ethyl]amino}-5,6,7,8-tetrahydronaphthalene-2-carboxylic acid]
95.3%	121%	–	3.5	C[C@@H](Oc1ccccc1CCN(CCCCC(=O)O)C1CCCc2cc(C(=O)O)ccc21)c1ccc(C(C)(C)C)cc1 (stereo partly drawn) [Example 45, 5-{N-[2-[2-[(1R)-1-(4-tert-Butylphenyl)ethoxy]phenyl]ethyl]-N-(4-carboxybutyl)amino}-5,6,7,8-tetrahydronaphthalene-2-carboxylic acid]
